The values that follow come from ChEMBL document CHEMBL3396968, “Isolation and cytotoxicity evaluation of taxanes from the barks of Taxus wallichiana var. mairei” (Bioorg Med Chem Lett, 2015).

The structures appear in SMILES notation. A value given as a limit tells only on which side of the number the result lay.

The nature of assay [1]: Antiproliferative activity against human A549/CDDP cells assessed as growth inhibition after 48 hrs by sulforhodamine B assay. The format is functional, cell-based. Conditions: A549, 48 h.
Assay [2] in a line: Antiproliferative activity against human HCT8/VCT cells assessed as growth inhibition after 48 hrs by sulforhodamine B assay. The format is functional, cell-based.
Assay [3] has as its system MCF7. Description: Antiproliferative activity against human MCF7 cells assessed as growth inhibition after 48 hrs by sulforhodamine B assay. The format is functional, cell-based. To be noted: MCF7, 48 h.
Assay [4] in a line: Antiproliferative activity against mouse NIH/3T3 cells assessed as growth inhibition after 48 hrs by sulforhodamine B assay. The format is cell-based. To be noted: NIH3T3, 48 h.
A short description of assay [5]: Antiproliferative activity against human MCF7/DX cells assessed as growth inhibition after 48 hrs by sulforhodamine B assay. The format is functional, cell-based.
Assay [6] deals with A2780. Description: Antiproliferative activity against human A2780 cells assessed as growth inhibition after 48 hrs by sulforhodamine B assay. The format is functional, cell-based. Conditions: A2780, 48 h.
Assay [7] can be described thus: Antiproliferative activity against human A2780/TAX cells assessed as growth inhibition after 48 hrs by sulforhodamine B assay. The format is functional, cell-based.
The nature of assay [8]: Antiproliferative activity against human HCT8 cells assessed as growth inhibition after 48 hrs by sulforhodamine B assay. The format is functional, cell-based. To be noted: HCT-8, 48 h.
The test system of assay [9] is A549. Description: Antiproliferative activity against human A549 cells assessed as growth inhibition after 48 hrs by sulforhodamine B assay. The format is functional, cell-based. To be noted: A549, 48 h.
Assay [10] relates to SW480. Description: Antiproliferative activity against human SW480 cells assessed as growth inhibition after 48 hrs by sulforhodamine B assay. The format is functional, cell-based. To be noted: SW480, 48 h.
Assay [11] relates to HepG2. Description: Antiproliferative activity against human HepG2 cells assessed as growth inhibition after 48 hrs by sulforhodamine B assay. The format is functional, cell-based. Conditions: HepG2, 48 h.

On to `CC(=O)O[C@H]1C(=O)[C@@]2(C)[C@H]([C@H](OC(=O)c3ccccc3)[C@]3(O)C[C@H](OC(=O)[C@H](O)[C@@H](NC(=O)OC(C)(C)C)c4ccccc4)C(C)=C1C3(C)C)[C@]1(OC(C)=O)CO[C@@H]1C[C@@H]2O`, for which the IC50 in assay [1] was less than 0.002 µM; in [2], 0.89 µM; in assay [3], less than 0.002 µM; in assay [4] it was less than 0.002 µM; in assay [5], less than 0.002 µM; in [6], less than 0.002 µM. Moreover, the IC50 in assay [7] is 0.42 µM; in assay [8] it was less than 0.002 µM; in assay [9], less than 0.002 µM.
Turning to `CCCCCC(=O)N[C@@H](c1ccccc1)[C@@H](O)C(=O)O[C@H]1C[C@@]2(O)[C@@H](OC(=O)c3ccccc3)[C@@H]3[C@]4(OC(C)=O)CO[C@@H]4C[C@H](O[C@@H]4OC[C@@H](O)[C@H](O)[C@H]4O)[C@@]3(C)C(=O)[C@H](O)C(=C1C)C2(C)C`, the IC50 in assay [1] is 0.64 µM; in assay [2], more than 25 µM; in [3], more than 25 µM; in [4] it was more than 25 µM; in assay [10], more than 25 µM; in [5], more than 25 µM. Further, the IC50 in assay [6] is 1.5 µM; in [11] it was more than 25 µM; in assay [7], more than 25 µM; in assay [8], 8.5 µM; in assay [9] it was 19 µM.
In the case of `C=C1[C@@H](O[C@@H]2O[C@H](CO)[C@@H](O)[C@H](O)[C@H]2O)C[C@H](OC(C)=O)[C@]2(C)[C@@H]1C[C@@H]1C[C@H](O)C(C)=C([C@@H](OC(C)=O)[C@@H]2OC(C)=O)C1(C)C`, the half-maximal inhibitory concentration (IC50) was more than 25 µM in [1]; more than 25 µM in assay [2]; more than 25 µM in [3]; more than 25 µM in assay [4]; 16 µM in assay [10]; more than 25 µM in assay [5]. For the same molecule, the IC50 in [6] was more than 25 µM; in assay [11], 6.1 µM; in [7], more than 25 µM; in assay [8], more than 25 µM; in assay [9], 2.2 µM.
For `CC(=O)O[C@@]12CO[C@@H]1C[C@H](O[C@@H]1OC[C@@H](O)[C@H](O)[C@H]1O)[C@@]1(C)C(=O)[C@H](O)C3=C(C)[C@@H](OC(=O)[C@H](O)[C@@H](NC(=O)c4ccccc4)c4ccccc4)C[C@@](O)([C@@H](OC(=O)c4ccccc4)[C@H]21)C3(C)C`, the IC50 in [1] is 2.5 µM; in assay [2], more than 25 µM; in [3] it was 0.8 µM; in [4] it was more than 25 µM; in assay [10] it was 16 µM; in assay [5], 1.4 µM. Besides, the IC50 was 1.6 µM in assay [6]; 3 µM in [11]; more than 25 µM in [7]; 0.26 µM in assay [8]; 2.1 µM in assay [9].
Take `C/C=C(\C)C(=O)N[C@@H](c1ccccc1)[C@@H](O)C(=O)O[C@H]1C[C@@]2(O)[C@@H](OC(=O)c3ccccc3)[C@@H]3[C@]4(OC(C)=O)CO[C@@H]4C[C@H](O[C@@H]4OC[C@@H](O)[C@H](O)[C@H]4O)[C@@]3(C)C(=O)[C@H](OC(C)=O)C(=C1C)C2(C)C`: the concentration for half-maximal inhibition (IC50) was more than 25 µM in [1]; more than 25 µM in assay [2]; 0.029 µM in [3]; more than 25 µM in [4]; 7.2 µM in [10]; more than 25 µM in [5]. Besides, the half-inhibitory concentration (IC50) in assay [6] was more than 25 µM; in assay [11], 5.8 µM; in [7], 17 µM; in [8] it was more than 25 µM; in assay [9], 2.2 µM.
In the case of `CC(=O)O[C@H]1C(=O)[C@]2(C)[C@@H](O[C@@H]3OC[C@@H](O)[C@H](O)[C@H]3O)C[C@H]3OC[C@@]3(OC(C)=O)[C@H]2[C@H](OC(=O)c2ccccc2)[C@]2(O)C[C@H](OC(=O)[C@H](O)[C@@H](NC(=O)c3ccccc3)c3ccccc3)C(C)=C1C2(C)C`, the IC50 is 0.92 µM in assay [1]; more than 25 µM in assay [2]; 0.16 µM in assay [3]; more than 25 µM in assay [4]; 5.6 µM in assay [10]; more than 25 µM in [5]. Also, the concentration for half-maximal inhibition (IC50) in [6] was 0.85 µM; in assay [11] it was 1.2 µM; in assay [7] it was more than 25 µM; in [8], 5.9 µM; in assay [9] it was 0.39 µM.
With `C/C=C(\C)C(=O)N[C@@H](c1ccccc1)[C@@H](O)C(=O)O[C@H]1C[C@@]2(O)[C@@H](OC(=O)c3ccccc3)[C@@H]3[C@]4(OC(C)=O)CO[C@@H]4C[C@H](O[C@@H]4OC[C@@H](O)[C@H](O)[C@H]4O)[C@@]3(C)C(=O)[C@H](O)C(=C1C)C2(C)C`, the IC50 in assay [1] was 3.1 µM; in [2], more than 25 µM; in assay [3] it was 0.14 µM; in [4], more than 25 µM; in assay [10], 20 µM; in [5], more than 25 µM. For the same molecule, the IC50 was 3.5 µM in [6]; 3.9 µM in assay [11]; more than 25 µM in assay [7]; more than 25 µM in assay [8]; 1.9 µM in assay [9].
Consider `CC(=O)O[C@@]12CO[C@@H]1C[C@H](O)[C@@]1(C)C(=O)[C@H](O)C3=C(C)[C@@H](O)C[C@@](O)([C@@H](OC(=O)c4ccccc4)[C@H]21)C3(C)C`, for which the IC50 in assay [1] was 25 µM; in [2] it was more than 25 µM; in assay [3], 17 µM; in [4], more than 25 µM; in [5] it was more than 25 µM; in [6], more than 25 µM. The IC50 is 16 µM in assay [7], more than 25 µM in assay [8] and 21 µM in [9].
Regarding `C=C1[C@@H](OC(=O)C[C@H](c2ccccc2)N(C)C)C[C@H](OC(C)=O)[C@]2(C)[C@@H]1C[C@@H]1C[C@H](OC(C)=O)C(C)=C([C@@H](OC(C)=O)[C@@H]2OC(C)=O)C1(C)C`, the IC50 in [1] was 14 µM; in assay [2], more than 25 µM; in assay [3], 0.04 µM; in assay [4], 10 µM; in assay [10], more than 25 µM; in assay [5] it was more than 25 µM. Besides, the concentration for half-maximal inhibition (IC50) in [6] is 5.1 µM; in assay [11], 15 µM; in assay [7], more than 25 µM; in [8], more than 25 µM; in assay [9] it was 12 µM.
On to `CC(=O)O[C@@]12CO[C@@H]1C[C@@H](O)[C@@]1(C)C(=O)[C@H](O)C3=C(C)[C@@H](OC(=O)[C@H](O)[C@@H](NC(=O)c4ccccc4)c4ccccc4)C[C@@](O)([C@@H](OC(=O)c4ccccc4)[C@H]21)C3(C)C`, for which the 50% inhibitory concentration (IC50) in assay [1] is 0.024 µM; in [2], 11 µM; in assay [3], 0.012 µM; in assay [4] it was 2.2 µM; in assay [10] it was 0.059 µM; in assay [5], more than 25 µM. The half-maximal inhibitory concentration (IC50) in [6] is 0.03 µM; in assay [11], 0.095 µM; in assay [7], 7.2 µM; in [8], 13 µM; in assay [9], 0.011 µM.
On to `C=C1[C@@H](OC(=O)/C=C/c2ccccc2)C[C@H](OC(C)=O)[C@]2(C)[C@@H]1C[C@@H]1C[C@H](OC(C)=O)C(C)=C([C@@H](OC(C)=O)[C@@H]2OC(C)=O)C1(C)C`, for which the IC50 in assay [1] is 7.1 µM; in assay [2], 12 µM; in assay [3], more than 25 µM; in assay [4] it was 15 µM; in assay [10], more than 25 µM; in assay [5] it was more than 25 µM. The half-inhibitory concentration (IC50) was 9.7 µM in assay [6]; more than 25 µM in assay [11]; more than 25 µM in [7]; 11 µM in assay [8]; 9.4 µM in [9].
In the case of `CC(=O)O[C@H]1C(=O)[C@@]2(C)[C@H]([C@H](OC(=O)c3ccccc3)[C@]3(O)C[C@H](O)C(C)=C1C3(C)C)[C@]1(OC(C)=O)CO[C@@H]1C[C@@H]2O` [BACCATIN III], the IC50 in [1] is 24 µM; in assay [2], more than 25 µM; in assay [3], 7.4 µM; in [4], more than 25 µM; in [5], more than 25 µM; in [6] it was more than 25 µM. Besides, the IC50 in assay [7] was more than 25 µM; in [8], 12 µM; in [9], more than 25 µM.
In the case of `C/C=C(\C)C(=O)N[C@@H](c1ccccc1)[C@@H](O)C(=O)O[C@H]1C[C@@]2(O)[C@@H](OC(=O)c3ccccc3)[C@@H]3[C@]4(OC(C)=O)CO[C@@H]4C[C@H](O)[C@@]3(C)C(=O)[C@H](OC(C)=O)C(=C1C)C2(C)C` [CEPHALOMANNINE], the IC50 was 0.005 µM in assay [1]; 7.2 µM in assay [2]; 0.004 µM in [3]; 0.6 µM in [4]; 0.033 µM in assay [10]; 7 µM in [5]. In addition, the IC50 was 0.013 µM in assay [6]; 0.02 µM in [11]; 4.9 µM in [7]; more than 25 µM in assay [8]; 0.008 µM in [9].
`CC(=O)O[C@H]1C(=O)[C@@]2(C)[C@H]([C@H](OC(=O)c3ccccc3)[C@]3(O)C[C@H](OC(=O)[C@H](O)[C@@H](NC(=O)c4ccccc4)c4ccccc4)C(C)=C1C3(C)C)[C@]1(OC(C)=O)CO[C@@H]1C[C@@H]2O` [PACLITAXEL]: the half-inhibitory concentration (IC50) was 0.58 µM in assay [4]; 0.021 µM in assay [10]; 6.2 µM in [5]; 0.009 µM in assay [11]; 4.4 µM in [7]; 0.066 µM in assay [8].
